In the supplement of paper PMC4723716:
Where a name gives a salt, the structure may show the parent alone.

Test system: Plasmodium falciparum NF54 gametocytes
Conditions: 384, incubation time: 72 h
Description: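 Known antimalarials and MMV control compounds in dose response against each stage (I–V) […] The fitted EC50 is reported as IC50 in µM; '>' marks the top dose reached without a curve.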

[1] = gametocyte stage: Stage I Dose Response IC50 (µM), assay protocol: SaLSSA
[2] = gametocyte stage: Stage II Dose Response IC50 (µM), assay protocol: SaLSSA
[3] = gametocyte stage: Stage III Dose Response IC50 (µM), assay protocol: SaLSSA
[4] = gametocyte stage: Stage IV Dose Response IC50 (µM), assay protocol: SaLSSA
[5] = gametocyte stage: Stage V Dose Response IC50 (µM), assay protocol: SaLSSA
[6] = gametocyte stage: Stage I Dose Response IC50 (µM), assay protocol: TSSA
[7] = gametocyte stage: Stage II Dose Response IC50 (µM), assay protocol: TSSA
[8] = gametocyte stage: Stage III Dose Response IC50 (µM), assay protocol: TSSA
[9] = gametocyte stage: Stage IV Dose Response IC50 (µM), assay protocol: TSSA
[10] = gametocyte stage: Stage V Dose Response IC50 (µM), assay protocol: TSSA

Row | SMILES | IC50 of gametocyte viability [1] [µM] | IC50 of gametocyte viability [2] [µM] | IC50 of gametocyte viability [3] [µM] | IC50 of gametocyte viability [4] [µM] | IC50 of gametocyte viability [5] [µM] | IC50 of gametocyte viability [6] [µM] | IC50 of gametocyte viability [7] [µM] | IC50 of gametocyte viability [8] [µM] | IC50 of gametocyte viability [9] [µM] | IC50 of gametocyte viability [10] [µM]
1 | Cc1cc2nc3c(=O)[nH]c(=O)nc-3n(C[C@H](O)[C@H](O)[C@H](O)CO)c2cc1C [Flavin mononucleotid (Riboflavin)] | > 12.5 | > 12.5 | > 12.5 | > 12.5 | > 12.5 | – | – | – | – | –
2 | C[C@@H]1C[C@@H]([C@H](O)CC2CC(=O)NC(=O)C2)C(=O)[C@@H](C)C1 [Cycloheximide] [listing 1 of 2 here] | – | – | – | – | – | 1.23 | 2.46 | 2.51 | 1.92 | 4.62
3 | C=C[C@H]1CN2CC[C@H]1C[C@H]2[C@H](O)c1ccnc2ccc(OC)cc12 [Quinine sulfate dihydrate (coeff. 2)] | – | – | – | – | – | 0.918 | 0.767 | 1.58 | > 12.5 | > 12.5
4 | CC(C)(N)CNC(=O)C[C@H]1CC[C@]2(CC1)OOC1(O2)C2CC3CC(C2)CC1C3 (stereo not given in full) | 0.00769 | 0.00395 | 0.00158 | 0.00787 | > 12.5 | – | – | – | – | –
5 | N=C(N)c1ccc(OCCCCCOc2ccc(C(=N)N)cc2)cc1 [Pentamidine] [listing 1 of 2 here] | 0.397 | 0.591 | 0.697 | 0.813 | 2.14 | – | – | – | – | –
6 | CC1Cc2c([nH]c3cc(F)c(F)cc23)C2(N1)C(=O)Nc1ccc(Cl)cc12 (stereo not given) [KAF246] | 0.00139 | 0.00186 | 0.0021 | 0.00177 | 0.00235 | – | – | – | – | –
7 | O=C1C(O)=C([C@H]2CC[C@H](c3ccc(Cl)cc3)CC2)C(=O)c2ccccc21 [Atovaquone] | > 12.5 | > 12.5 | > 12.5 | 2.37 | > 12.5 | – | – | – | – | –
8 | CC(C)(C)NCc1cc(Nc2ccnc3cc(Cl)ccc23)c2c(c1O)CCCC2 [Naphthoquine] | – | – | – | – | – | 0.0234 | 0.0128 | > 4.17 | > 4.17 | > 4.17
9 | C=C[C@H]1CN2CC[C@H]1C[C@@H]2[C@@H](O)c1ccnc2ccc(OC)cc12 [Quinidine] | – | – | – | – | – | 0.18 | 0.275 | 2.83 | > 12.5 | > 12.5
10 | C[C@@H]1CC[C@H]2[C@@H](C)C(=O)O[C@@H]3O[C@@]4(C)CC[C@@H]1[C@]32OO4 [Artemisinin] | 0.0243 | 0.0204 | 0.0118 | 0.0373 | > 12.5 | – | – | – | – | –
11 | CCc1nc(N)nc(N)c1-c1ccc(Cl)cc1 [pyrimethamine] | > 12.5 | > 12.5 | > 12.5 | > 12.5 | > 12.5 | – | – | – | – | –
12 | Cc1cc(NS(=O)(=O)c2ccc(N)cc2)no1 [Sulfamethoxazole] | – | – | – | – | – | > 12.5 | > 12.5 | > 12.5 | > 12.5 | > 12.5
13 | Nc1ccc(S(=O)(=O)Nc2ncccn2)cc1 [Sulfadiazine] [listing 1 of 2 here] | > 12.5 | > 12.5 | > 12.5 | > 12.5 | > 12.5 | – | – | – | – | –
14 | C=C[C@H]1CN2CC[C@@H]1C[C@H]2[C@H](O)c1ccnc2ccc(OC)cc12 [Quinine sulfate dihydrate (coeff. 2)] | 0.44 | 0.496 | > 8.77 | > 12.5 | > 8.86 | – | – | – | – | –
15 | CC(C)NC(=N)NC(=N)Nc1ccc(Cl)c(Cl)c1 [Chlorproguanil hydrochloride/1.11] | 9.35 | 7.79 | 7.87 | 5.21 | 4.8 | > 12.5 | > 12.5 | 8.37 | 7.57 | > 11
16 | CC(C)NC(=N)NC(=N)Nc1ccc(Cl)cc1 [proguanil hydrochloride/1.14] | > 12.5 | > 12.5 | > 12.5 | > 12.5 | > 12.5 | – | – | – | – | –

Row | SMILES | IC50 of gametocyte viability [1] [µM] | IC50 of gametocyte viability [2] [µM] | IC50 of gametocyte viability [3] [µM] | IC50 of gametocyte viability [4] [µM] | IC50 of gametocyte viability [5] [µM] | IC50 of gametocyte viability [6] [µM] | IC50 of gametocyte viability [7] [µM] | IC50 of gametocyte viability [8] [µM] | IC50 of gametocyte viability [9] [µM] | IC50 of gametocyte viability [10] [µM]
17 | CN(C)c1ccc2nc3ccc(=[N+](C)C)cc-3sc2c1 [Methylene Blue trihydrate] | – | – | – | – | – | 0.0222 | 0.0164 | 0.0181 | 0.0454 | 1.04
18 | CC(=O)N[C@@H](C(=O)O)C(C)(C)S [N-acetyl-D-penicillamine] | > 12.5 | > 12.5 | > 12.5 | > 12.5 | > 12.5 | – | – | – | – | –
19 | C[C@H]1[C@H](N2CCS(=O)(=O)CC2)O[C@@H]2O[C@@]3(C)CC[C@H]4[C@H](C)CC[C@@H]1[C@@]24OO3 [Artemisone] [listing 1 of 2 here] | – | – | – | – | – | 0.00264 | 0.00244 | 0.00605 | 0.00548 | > 7.85
20 | CC1(C)N=C(N)N=C(N)N1c1ccc(Cl)cc1 [Cycloguanil] | > 12.5 | > 12.5 | > 12.5 | > 12.5 | > 12.5 | – | – | – | – | –
21 | C[C@H]1[C@H](N2CCS(=O)(=O)CC2)O[C@@H]2O[C@@]3(C)CC[C@H]4[C@H](C)CC[C@@H]1[C@@]24OO3 [Artemisone] [listing 2 of 2 here] | 0.00277 | 0.00176 | 0.00339 | 0.00421 | > 12.5 | – | – | – | – | –
22 | Nc1ccc(S(=O)(=O)Nc2ncccn2)cc1 [Sulfadiazine] [listing 2 of 2 here] | – | – | – | – | – | > 12.5 | > 12.5 | > 12.5 | > 12.5 | > 12.5
23 | CN(C)c1ccc2nc3ccc(N(C)C)cc3[s+]c2c1 [Methylene Blue trihydrate] | 0.0199 | 0.0153 | 0.0133 | 0.0117 | 0.258 | – | – | – | – | –
24 | CN(C)[C@@H]1C(O)=C(C(N)=O)C(=O)[C@@]2(O)C(O)=C3C(=O)c4c(O)cccc4[C@@](C)(O)[C@H]3C[C@@H]12 [Tetracycline] | > 12.5 | > 12.5 | > 12.5 | > 12.5 | > 12.5 | – | – | – | – | –
25 | CC[C@H]1OC(=O)[C@H](C)[C@@H](O[C@H]2C[C@@](C)(OC)[C@@H](O)[C@H](C)O2)[C@H](C)[C@@H](O[C@@H]2O[C@H](C)C[C@H](N(C)C)[C@H]2O)[C@](C)(O)C[C@@H](C)CN(C)[C@H](C)[C@@H](O)[C@]1(C)O [Azithromycin] | – | – | – | – | – | > 12.5 | > 12.5 | > 12.5 | > 12.5 | > 12.5
26 | CCN(CC)CCCC(C)Nc1ccnc2cc(Cl)ccc12 (stereo not given) [Chloroquine] | 0.0956 | 0.0981 | > 6.25 | > 6.25 | > 6.25 | 0.084 | 0.0806 | > 6.25 | > 6.25 | > 6.25
27 | COc1cc(C)c2c(Oc3cccc(C(F)(F)F)c3)c(OC)cc(NC(C)CCCN)c2n1 (stereo not given) [Tafenoquine] | – | – | – | – | – | 5.3 | 7.55 | 7.03 | 6.87 | 0.919
28 | N=C(N)c1ccc(OCCCCCOc2ccc(C(=N)N)cc2)cc1 [Pentamidine] [listing 2 of 2 here] | – | – | – | – | – | 0.713 | 0.878 | 1.19 | 1 | 2.36
29 | Clc1ccc2c(N3CCN(CCCN4CCN(c5ccnc6cc(Cl)ccc56)CC4)CC3)ccnc2c1 [Piperaquine phosphate] | 0.018 | 0.0145 | 0.031 | > 4.17 | > 4.17 | – | – | – | – | –
30 | C[C@]12CC[C@H](OS(=O)(=O)O)CC1=CC[C@@H]1[C@@H]2CC[C@]2(C)C(=O)CC[C@@H]12 [dehydroepiandrosterone sulphate] | > 12.5 | > 12.5 | > 12.5 | > 12.5 | > 12.5 | – | – | – | – | –
31 | C[C@@H]1C[C@@H]([C@H](O)CC2CC(=O)NC(=O)C2)C(=O)[C@@H](C)C1 [Cycloheximide] [listing 2 of 2 here] | 1.92 | 0.64 | 0.913 | 0.477 | 2.69 | – | – | – | – | –
